In patent publication EP0101441B1, “ANTI-VIRAL COMPOSITIONS” (SYNTEX (U.S.A.) INC., priority 1982, dated 1983):

Key:
HSV-1-PATTON [1] = experiment: Viral plaque titration in human fetal fibroblasts (HFF); type: cell-based, Herpes simplex virus; conditions: Example 1, drug µg/ml: G* 1.2, BVDU 0.11, ACG 2.0, PAA 250, same in combinations; for VT (virus titre): HFF cells, no-drug control VT 147; for FTR (fold titre reduction): ratio of control virus titre to that of the test
Procedure: (§1) Human fetal fibroblasts (HFF) derived from fetal tissues were used in this study. Cells were grown and maintained in Basal Medium Eagle (BME) supplemented with 0.112% sodium bicarbonate, 2 mML- glutamine, 2 mg% Neomycin and 20% (vol/vol) calf serum.
(§2) A viral plaque titration method (Roizman and Roane, 1961) was used to determine the titer of the HSV strain. Tissue culture dishes (35 by 10 mm, Corning) were seeded with cells and used for assays when they were approximately 75% monolayer. Volumes (0.2 ml) of logarithmic dilutions of the virus strain were inoculated onto each of two tissue culture dishes and adsorbed for 1 hr with intermittent shaking, the inoculum was removed and 2 ml of 20% BME containing 0.5% human immune serum globulin was added. After a 48 h incubation period at 36°C in a 5% C02 atmosphere, the overlay m'edium was removed, and the cell sheets were stained with a 0.05% aqueous crystal violet solution. The plaque numbers were counted with the aid of a Nikon profile projector which magnified the dishes 10x. Duplicate results were averaged, and the number of plaque-forming units (PFU) was calculated. The virus titre is thus expressed as a number of plaque forming units to be seen after growth under these conditions.
(§3) In order to make comparisons between the activities of the various drugs and combinations, experiments were conducted by plaque titration to determine for each drug its viral ED-50 (i.e. the concentration thereof which inhibits HSV plaque formation by 50% in the HFF cells, as compared with cell cultures in the absence of the drug). For this purpose, tissue culture dishes (35 by 10 mm) with HFF cell monolayers at 75% confluence were inoculated with approximately 50 plaque-forming units of virus per 0.2 ml, and the virus was allowed to adsorb for 1 hr with intermittent shaking. After removal of the inoculum, 2 ml of 20% BME with 0.5% immune globulin and threefold dilutions of the appropriate drug were added to duplicate dishes. One set of dishes received no drug and was later used for the "no-drug control". After a 48 h incubation period at 36°C in a 5% C02 atmosphere, the overlay medium was removed, the cells were stained as described above, and plaques were counted. After averaging the counts of duplicate plates, the fraction of plaques emerging in the presence of each drug dilution was calculated as a percent of the control. Each drug titration was plotted on semilogarithmic graph paper, with the number of plaques per dish as the vertical axis and the drug concentration as the horizontal axis. The viral ED50 was calculated as that amount of drug per ml of overlay medium that inhibited plaque numbers by 50%, compared to a control (no drug), and this was read off the graphic plot of the data.
(§4) Three combinations of the drugs were then tested for activity by viral plaque titration, at concentrations which were multiples of the ED50 of the individual drugs. When G^*, BVDU or ACG was present, a concentration ten times that of its ED50 was used in the combination. This was intended to ensure a concentration sufficiently high to limit the numbers of partially drug-resistant virus plaques to a small fraction, in respect of each drug of the combination. In respect of PAA, a concentration of five times the ED50 was used, to avoid cell toxicity problems. The drugs were individually plaque-titrated at the same concentrations, for comparison purposes.
(§5) The results are given in the first Table headed "HSV-1-PATTON". The column headed "VT" gives the virus titre, expressed in plaque-forming units (PFU) per ml, x10^5; of course, the lower the figure, the greater the inhibitory, anti-viral effect of the tested drug (D). The column headed "FTR" gives the fold titre reduction which is the ratio of virus titre for the control, i.e. no drug, to that of the given test. […]

HSV-2-EL3 = experiment: as above; type: cell-based, Herpes simplex virus; conditions: Example 3, drug µg/ml: G* 2.0, PAA 82, combination 2.0+82; for VT (virus titre): HFF cells, no-drug control VT 77; for FTR (fold titre reduction): ratio of control virus titre to that of the test
HSV-1-PATTON [2] = experiment: as above; type: cell-based, Herpes simplex virus; conditions: Example 2, drug µg/ml: G* 0.7, PFA 80, combination 0.7+80; for VT (virus titre): HFF cells, no-drug control VT 3400; for FTR (fold titre reduction): ratio of control virus titre to that of the test
HSV-2-EL4 = experiment: as above; type: cell-based, Herpes simplex virus; conditions: for VT (virus titre): HFF cells, no-drug control VT 750; for FTR (fold titre reduction): ratio of control virus titre to that of the test
HSV-1-EL11 = experiment: as above; type: cell-based, Herpes simplex virus; conditions: Example 3, drug µg/ml: G* 0.4, PAA 25, combination 0.4+25; for VT (virus titre): HFF cells, no-drug control VT 8.0; for FTR (fold titre reduction): ratio of control virus titre to that of the test
HSV-2-EL6 = experiment: as above; type: cell-based, Herpes simplex virus; conditions: for VT (virus titre): HFF cells; for FTR (fold titre reduction): ratio of control virus titre to that of the test
HSV-2-EL1 = experiment: as above; type: cell-based, Herpes simplex virus; conditions: Example 3, drug µg/ml: G* 2.0, PAA 76, combination 2.0+76; for VT (virus titre): HFF cells, no-drug control VT 170; for FTR (fold titre reduction): ratio of control virus titre to that of the test
HSV-1-227 = experiment: as above; type: cell-based, Herpes simplex virus; conditions: Example 3, drug µg/ml: G* 2.0, PAA 80, combination 2.0+80; for VT (virus titre): HFF cells, no-drug control VT 28; for FTR (fold titre reduction): ratio of control virus titre to that of the test
Procedure: as §1, §2, §3, §4, §5

[3] = cited from earlier work
[4] = Example 2, drug µg/ml: G* 3.0, PFA 80, combination 3.0+80
[5] = Example 3, drug µg/ml: G* 2.0, PAA 90, combination 2.0+90
[6] = Example 2, no-drug control VT 150, drug µg/ml: G* 0.7, PFA 80, combination 0.7+80
[7] = Example 2, drug µg/ml: G* 0.7, PFA 80, combination 0.7+80
[8] = Example 3, no-drug control VT 180, drug µg/ml: G* 0.6, PAA 90, combination 0.6+90
[9] = Example 3, drug µg/ml: G* 0.6, PAA 90, combination 0.6+90

Nc1nc2c(ncn2COCCO)c(=O)[nH]1 [ACG, 9 - [2 - hydroxyethoxymethyl]guanine]
VT (virus titre) (HSV-1-PATTON [1]): 4.7 PFU per ml, x10^5 | FTR (fold titre reduction) (HSV-1-PATTON [1]): 31

O=c1[nH]c(=O)n([C@H]2C[C@H](O)[C@@H](CO)O2)cc1/C=C/Br [BVDU, bromovinyl-deoxyuridine]
VT (virus titre) (HSV-1-PATTON [1]): 2.1 PFU per ml, x10^5 | FTR (fold titre reduction) (HSV-1-PATTON [1]): 70

Nc1nc2c(ncn2COC(CO)CO)c(=O)[nH]1 [G*, 9 - [[2 - hydroxy - 1 - (hydroxymethyl)ethoxy]methyl]guanine]
VT (virus titre) (HSV-2-EL3): 10 PFU per ml, x10^5 | FTR (fold titre reduction) (HSV-2-EL3): 7.7 | VT (virus titre) (HSV-1-PATTON [2]): 140 PFU per ml, x10^5 | FTR (fold titre reduction) (HSV-1-PATTON [2]): 24 | VT (virus titre) (HSV-2-EL4; [4]): 21 PFU per ml, x10^5 | FTR (fold titre reduction) (HSV-2-EL4; [4]): 36 | VT (virus titre) (HSV-2-EL4; [5]): 5.9 PFU per ml, x10^5 | FTR (fold titre reduction) (HSV-2-EL4; [5]): 130 | VT (virus titre) (HSV-1-EL11): 0.37 PFU per ml, x10^5 | FTR (fold titre reduction) (HSV-1-EL11): 22 | VT (virus titre) (HSV-2-EL6; [6]): 40 PFU per ml, x10^5 | FTR (fold titre reduction) (HSV-2-EL6; [7]): 3.8 | VT (virus titre) (HSV-2-EL6; [8]): 0.90 PFU per ml, x10^5 | FTR (fold titre reduction) (HSV-2-EL6; [9]): 200 | VT (virus titre) (HSV-2-EL1): 8.9 PFU per ml, x10^5 | FTR (fold titre reduction) (HSV-2-EL1): 19 | VT (virus titre) (HSV-1-227): 0.25 PFU per ml, x10^5 | FTR (fold titre reduction) (HSV-1-227): 110 | VT (virus titre) (HSV-1-PATTON [1]): 1.1 PFU per ml, x10^5 | FTR (fold titre reduction) (HSV-1-PATTON [1]): 130

O=C(O)CP(=O)(O)O [PAA, phosphonoacetic acid]
VT (virus titre) (HSV-2-EL3): 0.36 PFU per ml, x10^5 | FTR (fold titre reduction) (HSV-2-EL3): 210 | VT (virus titre) (HSV-2-EL4; [5]): 0.10 PFU per ml, x10^5 | FTR (fold titre reduction) (HSV-2-EL4; [5]): 7,500 | drug concentrations in topical formulation reported as skin irritant [3]: > 100 mM | VT (virus titre) (HSV-1-EL11): 2.8 PFU per ml, x10^5 | FTR (fold titre reduction) (HSV-1-EL11): 2.9 | VT (virus titre) (HSV-2-EL6; [8]): 31.0 PFU per ml, x10^5 | FTR (fold titre reduction) (HSV-2-EL6; [9]): 5.8 | VT (virus titre) (HSV-2-EL1): 0.34 PFU per ml, x10^5 | FTR (fold titre reduction) (HSV-2-EL1): 500 | VT (virus titre) (HSV-1-227): 1.1 PFU per ml, x10^5 | FTR (fold titre reduction) (HSV-1-227): 26 | VT (virus titre) (HSV-1-PATTON [1]): 3.2 PFU per ml, x10^5 | FTR (fold titre reduction) (HSV-1-PATTON [1]): 50

O=C(O)P(=O)(O)O [PFA, phosphonoformic acid]
VT (virus titre) (HSV-1-PATTON [2]): 750 PFU per ml, x10^5 | FTR (fold titre reduction) (HSV-1-PATTON [2]): 4.5 | VT (virus titre) (HSV-2-EL4; [4]): 0.28 PFU per ml, x10^5 | FTR (fold titre reduction) (HSV-2-EL4; [4]): 2,700 | skin harm of topical formulation ([3]; drug concentrations in excess of 100 mM): do not appear harmful | VT (virus titre) (HSV-2-EL6; [6]): 48 PFU per ml, x10^5 | FTR (fold titre reduction) (HSV-2-EL6; [7]): 3.1
